Counter-ions that a name gives are not always drawn.
Assays:
PAF receptor [1] = biological target: T1, PAF receptor (Homo sapiens, UniProt P25105); experiment: Inhibition of PAF-induced aggregation in human platelet rich plasma; type: cell-based; conditions: PAF challenge 1E-6M, number of experiments in parentheses
T1 construct: Blood from healthy volunteers was collected; endogenous in cells; host or cells: human platelets (healthy volunteers)
Description: (§1) Test compounds were evaluated as PAF receptor antagonists in vitro by measuring inhibition of PAF (platelet activating factor) induced platelet aggregation. Platelet aggregation was measured by a modification of the method described in A. Wissner, et. al., J. Med. Chem., 27, 1174, 1984.
(§2) L-PAF was obtained from Calbiochem. A stock solution of 1-2 E-3M was prepared in 10% ethanol in water or 100% methanol and serial working dilutions were made using phosphate buffered saline (PBS). 1-2 E-3M stock solutions of test compounds were prepared in 100% methanol and serially diluted in PBS. All solutions were made up in plastic tubes, stored on ice and protected from heat and light. Solutions were prepared fresh or frozen at -20° C. and used within 48 hours.
(§3) Incubation mixtures consisted of 400 μl PRP, 50 μl of PBS diluent or test compound and 50 μl of PAF agonist. More specifically, 400 μl of PRP was stabilized in a cuvette for 1-2 minutes at 37° C. in the aggregometer to achieve a stable baseline, then 50 μl of PBS or test compound, was added and incubated for 5 minutes before addition of the challenge concentration of PAF (final concentration of 5E-8M or 1E-7M, as determined from the dose response curve for PAF for that experiment). Aggregation was monitored for 5 minutes. Samples containing test compound or diluent were run simultaneously for comparison. Test compounds were initially evaluated at a screening concentration of 1E-5M.
(§4) The recording equipment consisted of a dual channel Chronolog aggregometer connected to a dual channel 10 MV full scale deflection Omniscribe chart recorder (Houston Instruments). […] The bead suspension was used to set the 0% light transmission mark and clear water was used to set the 100% light transmission mark. These limits defined a full scale deflection. The aggregation traces were analyzed by a digitizing method (C. Kohler and B. Zoltan, J. Pharm. Methods, 12, 113, 1984) with x, y coordinate data stored in a computer file. A suitable program computed parameters of interest such as the magnitude of aggregation.
In some experiments, human PRP was used instead of rabbit PRP. Blood from healthy volunteers was collected in Vacutainers® containing the Na citrate diluent and processed in a manner similar to rabbit blood to obtain the PRP. For these experiments, the challenge concentration of PAF was 1E-6M.

PAF receptor [2] = biological target: T2, PAF receptor (Oryctolagus cuniculus, UniProt G1TEI7); experiment: Inhibition of PAF-induced aggregation in rabbit platelet rich plasma; type: cell-based, rabbit (male New Zealand White); conditions: rabbit platelet rich plasma; PAF challenge 5E-8M; number of experiments in parentheses; read-out: IC50 inhibition of PAF-induced aggregation
T2 construct: endogenous in cells; host or cells: rabbit platelets (male New Zealand White)
Description: as §1
Approximately 120-240 ml of blood were collected by cardiac puncture from unanesthetized male New Zealand White rabbits (Whaley's Summit View Farms, Belvedere, N.J.) with the use of 3.2% sodium citrate anticoagulant (1 part of citrate/10 parts of blood). All syringes and pipets were plastic. The blood was gently mixed and immediately centrifuged at 800 rpm for 10-15 minutes at room temperature to recover the platelet rich plasma (PRP). Platelet poor plasma (PPP) was prepared by centrifuging PRP at 2800 rpm for 10 minutes at room temperature.
Dilutions (1:3000) of PRP in Isoton® diluent were made and platelet counts were determined on a Coulter Thrombocounter which was standardized with platelet reference standards (Interscience Platelet Control, Portland, Oreg.). PRP platelet counts were adjusted to approximately 400,000-500,000 platelets/μl by the addition of PPP.
as §2, §3, §4

[3] = test system: endotoxin induced mortality; experiment: Endotoxin induced shock and mortality in mice; type: in vivo, mouse (male Balb/c)
Text: The test compounds (PAF antagonists) were also efficacious when administered iv prior to a lethal iv injection of endotoxin (Table IX).

PAF induced lethality = PAF induced lethality in mice; type: in vivo; conditions: I.P. 10 mg/kg; corrected for control lethality
Description: PAF given I.V. to mice causes an immediate hypotensive shock leading to death in 1 hour or less. Compounds were given intraperitoneally or P.O. at various times before the PAF challenge. Animals alive after 2 hours were counted and the activity of test compounds expressed as % survival corrected for any control (saline treated) animals which survived the PAF challenge.

PAF receptor [4] = biological target: T2, PAF receptor; experiment: Inhibition of PAF-induced aggregation in washed rabbit platelets; type: cell-based; conditions: PAF challenge 5E-9M, number of experiments in parentheses
Description: as §1, §2
as §3, with “More” for “Incubation mixtures consisted of 400 μl PRP, 50 μl of PBS diluent or test compound and 50 μl of PAF agonist. More”, “400 μl of PRP was stabilized in a cuvette” left out, “1E-5M. […]” for “1E-5M.”

T2 sequence (G1TEI7 1-342): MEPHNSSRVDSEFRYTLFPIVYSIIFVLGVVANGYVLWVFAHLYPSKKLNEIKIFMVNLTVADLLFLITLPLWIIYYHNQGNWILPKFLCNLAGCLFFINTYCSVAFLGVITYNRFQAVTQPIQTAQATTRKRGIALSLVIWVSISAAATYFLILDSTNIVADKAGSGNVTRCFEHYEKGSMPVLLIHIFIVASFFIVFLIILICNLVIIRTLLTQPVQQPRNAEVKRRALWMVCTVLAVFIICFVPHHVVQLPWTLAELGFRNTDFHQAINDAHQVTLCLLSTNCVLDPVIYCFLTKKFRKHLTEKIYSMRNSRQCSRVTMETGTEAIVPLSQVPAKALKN
T1 sequence (P25105 whole entry): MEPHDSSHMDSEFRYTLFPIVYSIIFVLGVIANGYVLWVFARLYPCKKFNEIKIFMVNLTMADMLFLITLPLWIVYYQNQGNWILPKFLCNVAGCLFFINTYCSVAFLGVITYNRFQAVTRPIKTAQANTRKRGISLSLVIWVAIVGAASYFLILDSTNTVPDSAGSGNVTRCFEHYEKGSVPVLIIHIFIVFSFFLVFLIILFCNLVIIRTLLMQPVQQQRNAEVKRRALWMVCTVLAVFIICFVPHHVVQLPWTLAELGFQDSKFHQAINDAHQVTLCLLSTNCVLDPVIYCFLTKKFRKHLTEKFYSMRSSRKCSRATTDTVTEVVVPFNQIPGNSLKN

For `CCCCCCCCCCCCCCOc1cccc(OP(=O)([O-])Oc2cccc(C[n+]3csc(C)c3)c2)c1OC` [3-[[3-[[Hydroxy[2-methoxy-3-(tetradecyloxy)phenoxy]-phosphinyl]oxy]phenyl]methyl]-5-methyl-thiazolium, hydroxide, inner salt], the IC50 (PAF receptor [1]) was 31 µM, the IC50 (PAF receptor [2]) was 2.51 µM and the “24 hour survival, treated” value ([3]; 40 mg/kg IP 2 hours prior to IP endotoxin) was 13/50. For the same compound, the “Survival after 24 hrs., treated” value ([3]; Table IX, 20 mg/kg iv prior to iv endotoxin, footnote prints IP, control 3/40) was 14/40, the “PAF induced lethality, % protection” value (PAF induced lethality) was 17% and the IC50 (PAF receptor [4]) was 0.00549 µM.

Reference: US5231091A, “Bis-arylphosphate ester antagonists of platelet activating factor” (priority 1992, dated 1993)
